Test results: ChEMBL document CHEMBL1201862, “PubChem BioAssay data set” (2004)
Calls of active or inactive are those of the source.

Legend:
Hexokinase-1 = Hexokinase-1 (Homo sapiens, UniProt P19367); assay: hexokinase 1 activators, dose response, selectivity assay for HKDC1 activator project, biochemical (AID 504762); assay type: functional
Hexokinase HKDC1 = molecular target: T1, Hexokinase HKDC1 (Homo sapiens, UniProt Q2TB90); assay: HKDC1 hexokinase activators, dose response, biochemical, W721R variant (AID 504730); assay type: functional
T1 sequence (Q2TB90 whole entry): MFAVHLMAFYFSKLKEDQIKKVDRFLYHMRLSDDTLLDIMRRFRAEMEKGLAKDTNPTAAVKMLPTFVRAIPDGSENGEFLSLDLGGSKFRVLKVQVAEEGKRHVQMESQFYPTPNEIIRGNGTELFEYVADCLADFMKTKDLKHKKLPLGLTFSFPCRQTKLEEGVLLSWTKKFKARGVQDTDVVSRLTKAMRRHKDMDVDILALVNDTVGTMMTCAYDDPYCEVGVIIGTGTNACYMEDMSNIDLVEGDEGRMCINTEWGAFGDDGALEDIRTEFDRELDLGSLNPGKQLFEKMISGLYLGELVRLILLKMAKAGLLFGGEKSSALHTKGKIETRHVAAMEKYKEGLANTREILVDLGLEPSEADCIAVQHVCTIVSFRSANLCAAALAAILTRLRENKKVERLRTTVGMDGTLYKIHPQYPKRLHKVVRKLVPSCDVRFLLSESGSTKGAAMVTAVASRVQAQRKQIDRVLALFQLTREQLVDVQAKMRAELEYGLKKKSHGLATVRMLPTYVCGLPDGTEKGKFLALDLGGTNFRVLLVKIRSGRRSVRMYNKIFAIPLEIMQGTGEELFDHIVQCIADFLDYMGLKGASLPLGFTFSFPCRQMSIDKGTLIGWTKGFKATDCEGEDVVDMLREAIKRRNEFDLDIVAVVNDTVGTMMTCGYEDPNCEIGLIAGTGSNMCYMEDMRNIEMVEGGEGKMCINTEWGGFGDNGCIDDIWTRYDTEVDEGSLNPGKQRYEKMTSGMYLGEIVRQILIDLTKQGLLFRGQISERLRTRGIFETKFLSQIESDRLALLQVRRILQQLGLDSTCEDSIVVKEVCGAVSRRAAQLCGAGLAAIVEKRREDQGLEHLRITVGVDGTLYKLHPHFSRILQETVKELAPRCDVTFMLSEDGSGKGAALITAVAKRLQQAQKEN

Nonstructural protein 1 = Nonstructural protein 1 (Influenza A virus, UniProt Q194T2); assay type: functional, Influenza A virus (A/California/07/2009(H1N1))
Sequence of Nonstructural protein 1 (Q194T2 whole entry): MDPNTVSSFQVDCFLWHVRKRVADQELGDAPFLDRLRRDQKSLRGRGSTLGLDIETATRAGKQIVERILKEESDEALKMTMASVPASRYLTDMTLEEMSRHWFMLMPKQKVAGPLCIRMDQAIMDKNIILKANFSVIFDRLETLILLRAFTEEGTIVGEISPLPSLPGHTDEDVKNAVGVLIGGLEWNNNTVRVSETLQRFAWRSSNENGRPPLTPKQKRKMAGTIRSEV

[1] = THP-1 cell cytotoxicity, dose response, cytotoxicity control for Vif-APOBEC3G degradation inhibitor project, THP-1 cells (AID 1117359); assay type: functional; conditions: Human immunodeficiency virus 1, THP-1
[2] = blockers of SFLLRN-triggered platelet ATP secretion – cell-based, human platelets, luminescence, dry powder, dose response (AID 493100); assay type: functional
Coagulation factor XII = molecular target: T2, Coagulation factor XII (Homo sapiens, UniProt P00748); assay: FXIIa inhibitor potency, concentration-response, biochemical (AID 716); assay type: functional
T2 sequence (P00748 whole entry): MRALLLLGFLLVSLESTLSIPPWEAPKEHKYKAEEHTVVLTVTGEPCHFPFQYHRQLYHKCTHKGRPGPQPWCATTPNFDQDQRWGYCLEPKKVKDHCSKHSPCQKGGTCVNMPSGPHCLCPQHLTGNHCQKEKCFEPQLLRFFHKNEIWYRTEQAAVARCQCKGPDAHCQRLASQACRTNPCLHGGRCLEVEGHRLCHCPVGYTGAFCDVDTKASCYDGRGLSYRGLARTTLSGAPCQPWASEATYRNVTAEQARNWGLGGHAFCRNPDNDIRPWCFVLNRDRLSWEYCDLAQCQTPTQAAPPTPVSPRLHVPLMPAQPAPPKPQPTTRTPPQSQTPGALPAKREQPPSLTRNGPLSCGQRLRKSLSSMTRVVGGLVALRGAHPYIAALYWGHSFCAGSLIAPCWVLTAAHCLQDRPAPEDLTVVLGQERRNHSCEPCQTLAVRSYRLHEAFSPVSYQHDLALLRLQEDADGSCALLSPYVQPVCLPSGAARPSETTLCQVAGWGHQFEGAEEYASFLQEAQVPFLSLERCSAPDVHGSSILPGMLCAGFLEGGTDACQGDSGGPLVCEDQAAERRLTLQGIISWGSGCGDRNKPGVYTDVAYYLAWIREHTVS

[3] = molecular target: DNA damage-inducible transcript 3 protein (Mus musculus, UniProt P35639); assay type: functional, Cricetulus griseus
Sequence of DNA damage-inducible transcript 3 protein (P35639 whole entry): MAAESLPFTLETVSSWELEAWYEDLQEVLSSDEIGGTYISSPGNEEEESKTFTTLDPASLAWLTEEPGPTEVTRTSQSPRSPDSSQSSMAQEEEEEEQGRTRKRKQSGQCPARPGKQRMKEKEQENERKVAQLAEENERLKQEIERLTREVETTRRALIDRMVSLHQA

Streptococcus = assay: Group A Streptococcus viability loss, dose response, counter-screen for streptokinase expression inhibitor project, luminescence, BacTiterGlo (AID 1915); assay type: functional, organism-based;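 also: potency for reduction of bacterial viability or growth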
Fatty acid synthase [4] = molecular target: T3, Fatty acid synthase (Homo sapiens, UniProt P49327); assay: FAS thioesterase domain inhibitors, dose response, biochemical, endpoint fluorescence intensity, uHTS hits (AID 624327); assay type: functional;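 also: fluorescence from hydrolysis of an O-methyl fluorescein acyl ester substrate by the enzyme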
T3 sequence (P49327 whole entry, the tested form may be a part): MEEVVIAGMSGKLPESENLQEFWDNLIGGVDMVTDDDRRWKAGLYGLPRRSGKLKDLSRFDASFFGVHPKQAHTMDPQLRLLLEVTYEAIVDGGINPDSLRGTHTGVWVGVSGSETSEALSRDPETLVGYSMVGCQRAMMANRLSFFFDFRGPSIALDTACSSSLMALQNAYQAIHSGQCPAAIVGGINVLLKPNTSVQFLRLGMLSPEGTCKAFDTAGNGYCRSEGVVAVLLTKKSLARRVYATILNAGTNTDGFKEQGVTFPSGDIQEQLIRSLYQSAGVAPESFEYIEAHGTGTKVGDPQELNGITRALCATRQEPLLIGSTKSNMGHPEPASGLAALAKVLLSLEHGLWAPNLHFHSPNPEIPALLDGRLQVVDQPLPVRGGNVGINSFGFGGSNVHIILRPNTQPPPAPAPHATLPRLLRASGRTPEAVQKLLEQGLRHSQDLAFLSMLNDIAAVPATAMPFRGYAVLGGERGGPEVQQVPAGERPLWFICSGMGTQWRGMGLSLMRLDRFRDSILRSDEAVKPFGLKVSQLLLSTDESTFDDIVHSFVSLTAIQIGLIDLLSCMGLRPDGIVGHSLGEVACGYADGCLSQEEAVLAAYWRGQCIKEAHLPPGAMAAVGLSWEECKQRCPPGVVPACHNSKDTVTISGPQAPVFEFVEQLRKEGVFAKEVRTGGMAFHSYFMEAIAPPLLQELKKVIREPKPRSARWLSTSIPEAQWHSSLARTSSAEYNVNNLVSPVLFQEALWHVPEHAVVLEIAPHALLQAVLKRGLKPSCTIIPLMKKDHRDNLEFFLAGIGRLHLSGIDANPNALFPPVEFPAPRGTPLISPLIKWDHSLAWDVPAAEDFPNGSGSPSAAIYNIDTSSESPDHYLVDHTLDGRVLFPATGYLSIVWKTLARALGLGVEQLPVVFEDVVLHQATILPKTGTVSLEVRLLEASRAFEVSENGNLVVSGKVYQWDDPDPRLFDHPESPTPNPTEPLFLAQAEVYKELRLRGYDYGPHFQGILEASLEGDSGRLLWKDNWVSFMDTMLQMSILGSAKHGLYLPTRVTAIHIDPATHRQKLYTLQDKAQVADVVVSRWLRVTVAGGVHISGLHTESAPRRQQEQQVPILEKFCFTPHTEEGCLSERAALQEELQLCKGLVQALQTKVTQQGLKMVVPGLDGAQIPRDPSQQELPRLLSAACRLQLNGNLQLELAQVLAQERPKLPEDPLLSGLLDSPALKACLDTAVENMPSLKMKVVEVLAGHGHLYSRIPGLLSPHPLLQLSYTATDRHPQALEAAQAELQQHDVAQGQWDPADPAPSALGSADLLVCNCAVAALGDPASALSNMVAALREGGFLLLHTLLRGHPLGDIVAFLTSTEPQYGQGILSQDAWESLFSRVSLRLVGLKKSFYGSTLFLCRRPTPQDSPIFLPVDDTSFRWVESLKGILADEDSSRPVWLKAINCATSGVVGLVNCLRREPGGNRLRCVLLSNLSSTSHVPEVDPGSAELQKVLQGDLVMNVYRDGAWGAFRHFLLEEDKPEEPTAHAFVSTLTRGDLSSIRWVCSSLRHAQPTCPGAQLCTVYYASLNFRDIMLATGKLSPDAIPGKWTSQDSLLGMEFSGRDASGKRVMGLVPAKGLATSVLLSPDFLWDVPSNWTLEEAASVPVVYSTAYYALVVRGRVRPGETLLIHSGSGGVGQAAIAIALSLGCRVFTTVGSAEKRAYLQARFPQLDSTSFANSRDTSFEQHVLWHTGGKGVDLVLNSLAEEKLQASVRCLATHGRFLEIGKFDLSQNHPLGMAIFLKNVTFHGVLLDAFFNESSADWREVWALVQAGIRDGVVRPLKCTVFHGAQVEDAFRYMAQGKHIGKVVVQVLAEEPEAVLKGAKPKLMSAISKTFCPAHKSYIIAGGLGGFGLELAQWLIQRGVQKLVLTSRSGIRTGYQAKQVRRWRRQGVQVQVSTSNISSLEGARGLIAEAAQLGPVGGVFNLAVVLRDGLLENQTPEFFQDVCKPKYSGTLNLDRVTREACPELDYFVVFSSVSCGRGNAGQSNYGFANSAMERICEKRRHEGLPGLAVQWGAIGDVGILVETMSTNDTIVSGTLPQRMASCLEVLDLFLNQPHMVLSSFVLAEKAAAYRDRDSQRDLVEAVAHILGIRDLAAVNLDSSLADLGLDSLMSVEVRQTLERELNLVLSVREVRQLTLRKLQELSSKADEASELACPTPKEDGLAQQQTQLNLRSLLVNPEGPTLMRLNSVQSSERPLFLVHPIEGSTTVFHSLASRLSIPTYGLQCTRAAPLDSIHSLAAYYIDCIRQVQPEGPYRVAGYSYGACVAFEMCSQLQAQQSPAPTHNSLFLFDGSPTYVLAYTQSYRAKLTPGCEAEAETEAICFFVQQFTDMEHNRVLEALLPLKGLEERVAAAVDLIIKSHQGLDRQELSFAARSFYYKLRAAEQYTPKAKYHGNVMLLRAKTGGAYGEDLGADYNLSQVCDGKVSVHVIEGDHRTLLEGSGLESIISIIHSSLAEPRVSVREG

[5] = molecular target: Nucleotide-binding oligomerization domain-containing protein 2 (Homo sapiens, UniProt Q9HC29); assay: NOD2 signaling inhibitors, cell-based, luminescence, uHTS, HEK293 (AID 1566); assay type: functional
Sequence of Nucleotide-binding oligomerization domain-containing protein 2 (Q9HC29 whole entry, the tested form may be a part): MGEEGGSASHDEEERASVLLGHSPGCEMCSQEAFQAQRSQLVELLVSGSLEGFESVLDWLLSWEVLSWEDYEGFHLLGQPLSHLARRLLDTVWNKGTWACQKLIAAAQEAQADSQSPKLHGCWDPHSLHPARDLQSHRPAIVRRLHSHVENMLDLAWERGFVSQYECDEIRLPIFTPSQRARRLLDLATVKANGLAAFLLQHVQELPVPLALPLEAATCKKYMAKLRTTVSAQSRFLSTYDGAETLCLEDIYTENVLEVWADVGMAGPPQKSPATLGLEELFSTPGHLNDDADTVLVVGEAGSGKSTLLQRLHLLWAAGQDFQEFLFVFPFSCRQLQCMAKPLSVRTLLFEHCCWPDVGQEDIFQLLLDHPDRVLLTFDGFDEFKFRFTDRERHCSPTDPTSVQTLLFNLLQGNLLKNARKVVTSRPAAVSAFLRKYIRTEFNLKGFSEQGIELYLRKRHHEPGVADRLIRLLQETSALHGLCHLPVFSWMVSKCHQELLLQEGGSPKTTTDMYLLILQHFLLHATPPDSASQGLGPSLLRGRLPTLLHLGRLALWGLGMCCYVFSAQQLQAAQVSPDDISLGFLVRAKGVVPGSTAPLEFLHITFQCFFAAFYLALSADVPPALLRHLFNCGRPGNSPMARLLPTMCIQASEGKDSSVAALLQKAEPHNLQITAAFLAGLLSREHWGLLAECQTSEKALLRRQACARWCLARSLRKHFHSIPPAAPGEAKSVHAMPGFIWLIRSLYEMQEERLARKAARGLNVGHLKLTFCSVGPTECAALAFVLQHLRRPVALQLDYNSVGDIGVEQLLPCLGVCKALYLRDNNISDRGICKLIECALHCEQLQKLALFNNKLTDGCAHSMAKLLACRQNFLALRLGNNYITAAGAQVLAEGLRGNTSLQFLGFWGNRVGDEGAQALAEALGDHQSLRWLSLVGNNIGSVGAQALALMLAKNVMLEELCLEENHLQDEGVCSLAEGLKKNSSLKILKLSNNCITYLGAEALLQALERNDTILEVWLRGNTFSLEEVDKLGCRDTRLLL

[6] = tested on: Streptococcus sp. 'group A'; assay: growth inhibition of control SK(-) GAS strain, dose response, counter-screen for streptokinase expression inhibitor project, luminescence, kanamycin, BacTiterGlo, confirmation (AID 1900); assay type: functional, organism-based
HEK293 [7] = assay: cells; assay type: functional, cell-based; conditions: Homo sapiens
HEK293 [8] = assay: NOD1 signaling inhibitors, primary screen, cell-based, luminescence, uHTS (AID 1578); assay type: functional; conditions: Homo sapiens
HEK293 [9] = assay: cells; assay type: functional, cell-based; conditions: Homo sapiens; remark: listed apart in the source
HEK293 [10] = assay: cells; assay type: functional, cell-based; conditions: Homo sapiens; remark: listed apart in the source
[11] = microbe, parasite or virus in culture; assay type: functional; conditions: Mycobacterium tuberculosis
HEK293 [12] = assay: NOD2 signaling inhibitors in MDP-stimulated cells, cell-based, uHTS, luminescence (AID 2001); assay type: functional; conditions: Homo sapiens
INS1 = assay: beta cell apoptosis inhibitors, cytokine rescue, dose response, luminescence, retest (AID 449756); assay type: functional, cell-based; conditions: Rattus norvegicus;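 also: cell death triggered by IL-1 beta plus TNF-alpha plus IFN-gamma mixture; protective hits raise ATP signal compared with cytokine alone wells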
Fatty acid synthase [13] = molecular target: T3, Fatty acid synthase; assay: FAS thioesterase domain inhibitors, dose response, biochemical, kinetic fluorescence intensity (AID 624326); assay type: functional;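 also: rate of fluorescence rise from hydrolysis of a fluorogenic O-methyl fluorescein ester substrate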
Bcl-2-like protein 10 = Bcl-2-like protein 10 (Homo sapiens, UniProt Q9HD36); assay: displacers of TR3 peptide from Bcl-B, primary screen, selectivity assay for Bfl-1 inhibitor project, biochemical, fluorescence polarization, FITC-TR3 peptide (AID 748);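 also: fluorescence polarization from a fluorescein-labelled TR3 peptide binding purified Bcl-B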
Sequence of Bcl-2-like protein 10 (Q9HD36 whole entry): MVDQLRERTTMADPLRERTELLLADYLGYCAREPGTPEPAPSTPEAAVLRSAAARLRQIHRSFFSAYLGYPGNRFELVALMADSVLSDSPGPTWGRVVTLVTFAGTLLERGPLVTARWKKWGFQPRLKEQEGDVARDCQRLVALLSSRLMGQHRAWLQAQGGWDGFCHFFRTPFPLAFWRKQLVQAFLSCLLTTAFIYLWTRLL

Sequence of Hexokinase-1 (P19367 whole entry): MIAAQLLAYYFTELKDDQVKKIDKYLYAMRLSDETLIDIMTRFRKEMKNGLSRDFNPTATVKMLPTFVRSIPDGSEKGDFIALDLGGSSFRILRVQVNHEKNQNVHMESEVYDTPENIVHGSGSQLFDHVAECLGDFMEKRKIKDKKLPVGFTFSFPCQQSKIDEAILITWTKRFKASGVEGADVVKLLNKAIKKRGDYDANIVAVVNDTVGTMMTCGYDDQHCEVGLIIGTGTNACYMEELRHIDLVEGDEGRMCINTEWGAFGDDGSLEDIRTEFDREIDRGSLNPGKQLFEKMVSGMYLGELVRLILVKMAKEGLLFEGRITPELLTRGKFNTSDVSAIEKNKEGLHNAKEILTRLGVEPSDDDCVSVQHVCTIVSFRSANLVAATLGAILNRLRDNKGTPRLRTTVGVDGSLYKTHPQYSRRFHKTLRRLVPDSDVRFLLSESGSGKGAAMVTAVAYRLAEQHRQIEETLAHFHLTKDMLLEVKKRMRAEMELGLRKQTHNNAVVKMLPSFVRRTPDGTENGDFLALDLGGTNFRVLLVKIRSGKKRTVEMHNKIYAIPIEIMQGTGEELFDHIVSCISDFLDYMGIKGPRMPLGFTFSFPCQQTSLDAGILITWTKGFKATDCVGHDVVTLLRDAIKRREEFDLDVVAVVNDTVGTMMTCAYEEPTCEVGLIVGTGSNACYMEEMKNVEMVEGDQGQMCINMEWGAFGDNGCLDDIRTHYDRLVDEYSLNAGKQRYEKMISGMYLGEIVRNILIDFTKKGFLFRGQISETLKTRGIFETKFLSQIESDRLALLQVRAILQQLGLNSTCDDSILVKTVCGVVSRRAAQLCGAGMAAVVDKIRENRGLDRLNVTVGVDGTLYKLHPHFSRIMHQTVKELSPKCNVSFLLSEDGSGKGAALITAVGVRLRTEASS

CC(=NNC(=S)SCc1ccccc1)c1ccccn1
EC50 (Hexokinase-1): > 80 µM (inactive) | EC50 (Hexokinase HKDC1): 1.61 µM (active) | IC50 (Nonstructural protein 1): 12.2 µM (active) | CC50 [1]: < 0.08 µM (active)

CCCC(=O)Nc1cccc(NC(=O)c2ccccc2Cl)c1
AC50 [2]: 6.09 µM (active)

COc1ccc(N2CCN(C(=O)c3c(-c4ccccc4)noc3C)CC2)cc1
IC50 (Coagulation factor XII): > 50 µM (inactive)

COC(=O)Oc1ccc(/C=N/NC(=O)CSCc2ccccc2Br)cc1OC
Absolute IC50 (CHOP) [3]: 10 µM

CCOc1ccc(-c2csc(/C(C#N)=C\c3ccc(O)c([N+](=O)[O-])c3)n2)cc1
EC50 (Streptococcus): 3.58 µM (active) | IC50 (Fatty acid synthase [4]): 6.61 µM (active) | EC50 [5]: 6.23 µM (active) | EC50 [6]: 2.18 µM (active) | IC50 (HEK293 [7]): 1.83 µM (active) | EC50 (HEK293 [8]): 1.52 µM (active) | IC50 (HEK293 [9]): > 20 µM (inactive) | IC50 (HEK293 [10]): 6.63 µM (active) | CC50 [11]: 10.5 µM (active) | IC50 (HEK293 [12]): 2.58 µM (inactive) | AC50 (INS1): 4 µM (active) | IC50 (Fatty acid synthase [13]): 6.74 µM (active)

Cc1ccc2nc3sc(-c4nnc(-c5ccccc5[N+](=O)[O-])o4)c(N)c3cc2c1
IC50 (Bcl-2-like protein 10): > 100 µM (inactive)
